Results as given in PubChem BioAssay (NCI).
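Tested at 5 concentrations; 48 h exposure; 96-well plates; endpoints linearly interpolated, else capped at highest concentration. At the GI50, growth is halved. TGI: concentration producing complete growth inhibition.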

Legend:
Assay in all cases: growth of human tumour cells (NCI), 48 h
[1] = system: HL-60(TB) leukemia
[2] = system: IGROV1 ovarian
[3] = system: SF-268 CNS
[4] = system: SW-620 colon
[5] = system: SF-295 CNS
[6] = system: NCI-H226 lung
[7] = system: HOP-62 NSCLC
[8] = system: SK-MEL-28 melanoma
[9] = system: T-47D breast
[10] = system: BT-549 breast

SMILES | TGI [1] [µM] | TGI [2] [µM] | TGI [3] [µM] | TGI [4] [µM] | TGI [5] [µM] | TGI [6] [µM] | TGI [7] [µM] | TGI [8] [µM] | TGI [9] [µM] | TGI [10] [µM] | GI50 [2] [µM] | GI50 [3] [µM] | GI50 [7] [µM] | GI50 [8] [µM] | GI50 [5] [µM] | GI50 [10] [µM] | GI50 [6] [µM]
O=C(CCC(=O)C(C(=O)c1ccccc1)c1ccccc1)Nc1cccc(C(F)(F)F)c1 (stereo unspecified) | > 100 | > 100 | > 100 | > 100 | > 100 | > 100 | – | – | – | – | – | – | – | – | – | – | –
Fc1ccccc1C1CC(c2ccc3ccccc3c2)=Nc2ccccc2S1 (stereo unspecified) | > 100 | > 100 | > 100 | > 100 | > 100 | > 100 | > 100 | > 100 | – | – | – | – | – | – | – | – | –
CC1C[C@@H]2C(=O)NC(=O)[C@@H]2c2c1c1ccccc1n2C (stereo partly specified) | > 100 | > 100 | > 100 | > 100 | > 100 | > 100 | > 100 | > 100 | – | – | – | – | – | – | – | – | –
CC1OC(OC2C(O[C@H]3CC[C@@]4(C)C(=CC[C@H]5[C@@H]6C[C@@H]7O[C@]8(CC[C@H](C)CN8)[C@@H](C)[C@@H]7[C@@]6(C)CC[C@@H]54)C3)OC(CO)C(O)C2OC2OC(CO)C(O)C(O)C2O)C(O)C(O)C1O (stereo partly specified) | 32.6 | 39.5 | 33.3 | 39 | 34.1 | 38.2 | – | 38.5 | 39 | 30.9 | – | – | – | – | – | – | –
CCc1cccc(C(C)C)c1NC(=O)C(=O)C(CC(=O)Nc1ccc(Cl)c(Cl)c1)C(=O)OC (stereo unspecified) | > 100 | > 100 | > 100 | 24.6 | > 100 | > 100 | > 100 | > 100 | – | – | – | – | – | – | – | – | –
Cc1ccc(S(=O)(=O)OCC23CCC(CC2)C2CC23)cc1 (stereo unspecified) | 39.1 | > 100 | > 100 | > 100 | > 100 | > 100 | > 100 | > 100 | – | – | – | – | – | – | – | – | –
C1CCN(c2nc(=[N+]3CCCCC3)ss2)CC1 | > 100 | > 100 | > 100 | > 100 | > 100 | > 100 | > 100 | > 100 | – | – | – | – | – | – | – | – | –
COC(=O)CCC(=O)CC(=O)C(=O)Nc1c(Cl)cc([N+](=O)[O-])cc1Cl | > 100 | > 100 | > 100 | – | > 100 | > 100 | > 100 | > 100 | – | – | – | – | – | – | – | – | –
CN(C)c1ccc(Nc2cc(-c3cccc(OC(F)(F)F)c3)nc3ccc(N4CCCC4)cc23)cc1 | – | 3.06 | 3.54 | – | 3.57 | 15.4 | 3.22 | 3.3 | – | 3.58 | 1.56 | 1.85 | 1.67 | 1.79 | 1.83 | 1.96 | 3.49
COCCCNC(=O)CC(=O)NCCCOC | > 100 | > 100 | > 100 | > 100 | > 100 | – | > 100 | > 100 | – | – | – | – | – | – | – | – | –
c1cc(CNCCN2CCNCC2)ccn1 | – | > 100 | > 100 | > 100 | > 100 | > 100 | > 100 | > 100 | > 100 | > 100 | – | – | – | – | – | – | –
COc1ccc(/C(C#N)=C/c2ccc(OC)c(OC)c2)cc1 | > 100 | > 100 | > 100 | > 100 | > 100 | > 100 | > 100 | > 100 | > 100 | – | – | – | – | – | – | – | –
